# Molecular target: urease enzyme (Canavalia ensiformis, UniProt P07374)
# Assay type: biochemical
# Details: read-out: IC50 values (urease inhibition); indophenol method, pH 6.8, 30 °C, 15 min incubation, triplicate; thiourea as standard
# Experimental: 25 µL of enzyme and 55 µL of buffer was added to 100 mM urea that were incubated with test scaffolds 5 µL (0.5 mM concentration) for 15 min at 30 °C in 96-well plates. Urea concentrations were changed from 2–24 mM to study kinetics. As described by Weatherburn the urease potential was assessed by measuring the ammonia production with using indophenol method. Concisely, 70 µL of alkali reagent (0.1% active chloride NaOCl and 0.5 w/v NaOH) and 45 µL of reagent phenol (0.005% w/v sodium nitroprusside and 1% w/v phenol) were added to each and every well plate. Using microplate reader (Molecular Device, USA) the increase in absorbance at 630 nm was measured after 50 min. Using 200 µL as final volume the reading was performed as triplicate. With help of SoftMaxPro software (Molecular Device, USA) the results (per min absorbance change) were calculated. At pH 6.8 the entire assay was performed. With the help of 100 − (ODtest well/ODcontrol) × 100 the percentage inhibition was calculated.
# urease enzyme, sequence (P07374 whole entry, looked up): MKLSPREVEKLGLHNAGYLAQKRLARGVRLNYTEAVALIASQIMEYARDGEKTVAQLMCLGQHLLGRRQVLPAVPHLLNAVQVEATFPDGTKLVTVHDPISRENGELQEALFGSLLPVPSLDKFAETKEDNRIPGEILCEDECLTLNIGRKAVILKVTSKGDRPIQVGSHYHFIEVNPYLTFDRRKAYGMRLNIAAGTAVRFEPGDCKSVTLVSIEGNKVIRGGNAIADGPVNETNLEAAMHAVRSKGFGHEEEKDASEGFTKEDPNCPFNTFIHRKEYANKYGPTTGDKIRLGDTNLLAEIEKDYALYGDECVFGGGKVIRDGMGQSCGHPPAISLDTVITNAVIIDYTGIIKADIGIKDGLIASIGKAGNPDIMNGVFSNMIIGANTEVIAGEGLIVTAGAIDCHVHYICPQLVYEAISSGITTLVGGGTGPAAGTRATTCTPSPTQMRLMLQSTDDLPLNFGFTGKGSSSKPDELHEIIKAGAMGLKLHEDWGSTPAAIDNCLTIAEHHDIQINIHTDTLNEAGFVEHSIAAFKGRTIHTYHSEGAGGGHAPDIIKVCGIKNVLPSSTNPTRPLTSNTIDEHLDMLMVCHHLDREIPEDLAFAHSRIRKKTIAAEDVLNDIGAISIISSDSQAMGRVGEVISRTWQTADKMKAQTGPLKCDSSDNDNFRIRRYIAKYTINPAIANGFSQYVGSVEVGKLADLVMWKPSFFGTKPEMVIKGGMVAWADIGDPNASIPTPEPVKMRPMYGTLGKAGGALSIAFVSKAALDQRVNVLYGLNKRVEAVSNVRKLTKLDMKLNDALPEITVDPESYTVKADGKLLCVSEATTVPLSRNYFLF
smiles,measurement,value
"O=C(NN1C(=O)SCC1c1ccc(Cl)cc1Cl)c1cc2c(F)cc([N+](=O)[O-])cc2o1 (stereo not shown) [Compound 8, N-(4-(2,4-dichlorophenyl)-2-oxothiazolidin-3-yl)-4-fluoro-6-nitrobenzofuran-2-carboxamide]",IC50,2.9 ± 0.01 µM

# From paper PMC7326984, “Synthesis, in vitro urease inhibitory potential and molecular docking study of benzofuran-based-thiazoldinone analogues” (Scientific Reports, 2020)
